ChEMBL document CHEMBL4613209, “Quinolone hybrids and their anti-cancer activities: An overview” (Eur J Med Chem, 2019)
Values after ≈ are worked out from the molar mass of the structure shown.

Columns and labels:
MCF7 [1] = assay: Cytotoxicity against human MCF7 cells assessed as reduction in cell viability by MTT assay; type: functional, cell-based
SK-MEL3 = assay: Cytotoxicity against human SK-MEL-3 cells assessed as reduction in cell viability by MTT assay; type: functional, cell-based
A-431 = assay: Cytotoxicity against human A431 cells assessed as reduction in cell viability by MTT assay; type: functional, cell-based
EJ = assay: Cytotoxicity against human EJ cells assessed as reduction in cell viability by MTT assay; type: functional, cell-based
SW480 = assay: Cytotoxicity against human SW480 cells assessed as reduction in cell viability by MTT assay; type: functional, cell-based
MCF7 [2] = assay: Cytotoxicity against human MCF7 cells assessed as reduction in cell viability after 72 hrs by MTT assay; type: functional, cell-based; details: MCF7, 72 h
MCF7 [3] = assay: Potency index, ratio of IC50 for etoposide to IC50 for test compound for cytotoxicity against human MCF7 cells assessed as reduction in cell viability after 72 hrs by MTT assay; type: functional
HL-60 [4] = assay: Cytotoxicity against human HL60 cells assessed as reduction in cell viability; type: functional, cell-based
Hep 3B2 [5] = assay: Potency index, ratio of IC50 for doxorubicin to IC50 for test compound for cytotoxicity against human Hep3B cells assessed as reduction in cell viability; type: functional
CAPAN-1 [6] = assay: Cytotoxicity against human Capan1 cells assessed as reduction in cell viability; type: functional, cell-based
Hep 3B2 [7] = assay: Cytotoxicity against human Hep3B cells assessed as reduction in cell viability; type: functional, cell-based
CAPAN-1 [8] = assay: Potency index, ratio of IC50 for doxorubicin to IC50 for test compound for cytotoxicity against human Capan1 cells assessed as reduction in cell viability; type: functional
HL-60 [9] = assay: Potency index, ratio of IC50 for doxorubicin to IC50 for test compound for cytotoxicity against human HL60 cells assessed as reduction in cell viability; type: functional
HeLa [10] = assay: Antiproliferative activity against human HeLa cells after 72 hrs by MTT assay; type: functional, cell-based
A549 = assay: Antiproliferative activity against human A549 cells after 72 hrs by MTT assay; type: functional, cell-based; details: A549, 72 h
HL-60 [11] = assay: Antiproliferative activity against human HL60 cells after 72 hrs by MTT assay; type: functional, cell-based; details: HL-60, 72 h
SW1990 = assay: Cytotoxicity against human SW1990 cells assessed as reduction in cell viability by MTT assay; type: functional, cell-based
NCI/ADR-RES = assay: Cytotoxicity against human MCF7/ADR cells assessed as reduction in cell viability by MTT assay; type: functional, cell-based
SMMC-7721 = assay: Cytotoxicity against human SMMC7721 cells assessed as reduction in cell viability by MTT assay; type: functional, cell-based
HUVEC = assay: Cytotoxicity against human HUVEC cells assessed as reduction in cell viability by MTT assay; type: cell-based
KB = assay: Potency index, ratio of TD50 for doxorubicin to TD50 for test compound for cytotoxicity against human KB cells assessed as reduction in cell viability; type: functional
L1210 = assay: Potency index, ratio of TD50 for doxorubicin to TD50 for test compound for cytotoxicity against mouse L1210 cells assessed as reduction in cell viability; type: functional
[12] = Potency index, ratio of TD50 for doxorubicin to TD50 for test compound for cytotoxicity against human SW403 cells assessed as reduction in cell viability; type: functional
MCF7 [13] = assay: Potency index, ratio of TD50 for doxorubicin to TD50 for test compound for cytotoxicity against human MCF7 cells assessed as reduction in cell viability; type: functional
OVCAR-3 = assay: Potency index, ratio of TD50 for doxorubicin to TD50 for test compound for cytotoxicity against human OVCAR3 cells assessed as reduction in cell viability; type: functional
[14] = Cytotoxicity against human WI38 cells assessed as reduction in cell viability; type: cell-based; details: WI-38 cells, read-out: TD50 (the source's name)
MRC5 = assay: Cytotoxicity against human MRC5 cells assessed as reduction in cell viability; type: functional; details: read-out: TD50 (the source's name)
CCRF S-180 = assay: Antitumor activity against mouse S180 cells xenografted in mouse assessed as reduction in tumor weight at 10 mg/kg relative to control; type: functional; set-up: scale not given: the % may be the effect or the level left
[15] = Cytotoxicity against human MGC832 cells assessed as reduction in cell viability after 48 hrs by MTT assay; type: functional, cell-based
HeLa [16] = assay: Cytotoxicity against human HeLa cells assessed as reduction in cell viability after 48 hrs by MTT assay; type: functional, cell-based

In the case of `CCn1cc(C(=O)O)c(=O)c2cc(F)c(N3CCN(C/C(=N/OC)c4ccc(Cl)s4)CC3)cc21`, the IC50 (MCF7 [1]) is reported as ≤ 20 µM, the IC50 (SK-MEL3) is reported as ≤ 20 µM and the IC50 (A-431) is reported as ≤ 20 µM. For the same compound, the IC50 (EJ) was ≤ 20 µM, the IC50 (SW480) was ≤ 20 µM and the IC50 (MCF7 [2]) was 2.5 to 5 µM. For the same compound, the “Ratio IC50” value (MCF7 [3]) was 4.64.
In the case of `CN1CCN(c2cc3c(cc2F)c(=O)c(-c2nc4s/c(=C\c5ccc(S(N)(=O)=O)cc5)c(=O)n4n2)cn3C2CC2)CC1`, the IC50 (HL-60 [4]) is reported as 1.5 µM, the “Ratio IC50” value (Hep 3B2 [5]) is reported as 2.3 - 5.6 and the IC50 (CAPAN-1 [6]) is reported as 0.3 µM. For the same compound, the IC50 (Hep 3B2 [7]) was 0.7 µM, the “Ratio IC50” value (CAPAN-1 [8]) was 2.3 - 5.6 and the “Ratio IC50” value (HL-60 [9]) was 2.3 - 5.6.
Work on `N=C(NS(=O)(=O)c1cccc(C(F)(F)F)c1)N1CCN(c2cc3c(cc2F)c(=O)c(C(=O)O)cn3-c2ccc(F)cc2F)CC1` yielded an IC50 (HeLa [10]) of 0.01 µM, an IC50 (A549) of 0.028 µM and an IC50 (HL-60 [11]) of 0.018 µM.
In the case of `COc1ccc2cc3[n+](cc2c1OCc1cn(Cc2cc(=O)[nH]c4ccccc24)nn1)-c1cc2c(cc1CC3)OCO2`, the IC50 (SW1990) is reported as 75.5 to 181 µM, the IC50 (NCI/ADR-RES) is reported as 75.5 to 181 µM and the IC50 (MCF7 [1]) is reported as 75.5 to 181 µM. For the same compound, the IC50 (SMMC-7721) was 75.5 to 181 µM and the IC50 (HUVEC) was 75.5 to 181 µM.
With `Cc1cn(-c2ccc(CCCCCCCCCCn3ccc(=O)c4c(N)cccc43)cc2)nn1` the Ratio (KB) was “>=4.6”, the Ratio (L1210) was “>=4.6” and the Ratio [12] was “>=4.6”. For the same compound, the Ratio (MCF7 [13]) was “>=4.6”, the Ratio (OVCAR-3) was “>=4.6” and the CC50 [14] was 7.45 µg/mL (≈ 16.3 µM). The CC50 (MRC5) was 0.033 µg/mL (≈ 0.0721 µM) and the Activity (CCRF S-180) was 13.1%.
For `COC(=O)c1c(-c2ccc[nH]2)[nH]c2ccccc2c1=O`, the IC50 [15] was 0.013 µM and the IC50 (HeLa [16]) was 0.11 µM.
